Laboratory results published in PubChem BioAssay AID248 (DTP/NCI, 2004).
Where “and” joins values, the source holds several entries; their conditions need not be identical. Equal values may be shown once. Inconclusive results and toxic doses are left out.

Tested on: L1210 leukemia ip in BDF1 mice, survival T/C
Assay: NCI In Vivo Anticancer Drug Screen. Data for tumor model L1210 Leukemia (intraperitoneal) in B6D2F1 (BDF1) mice
Details: endpoint: mean survival time, higher = longer survival
Procedure, shortened: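 Tumor cells were implanted, animals were treated, and survival was followed. The result divides the treated measurement by the vehicle-control measurement.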

[1] = dose: 50.0 mg/kg/injection, schedule: Q01DX009 (ip), vehicle: saline with Tween-80
[2] = dose: 50.0 mg/kg/injection, schedule: Q04DX003 (ip), vehicle: saline with Tween-80
[3] = dose: 100.0 mg/kg/injection, schedule: Q01DX001 (ip), vehicle: carboxymethylcellulose (CMC)
[4] = dose: 100.0 mg/kg/injection, schedule: Q01DX009 (ip), vehicle: saline with Tween-80
[5] = dose: 100.0 mg/kg/injection, schedule: Q04DX003 (ip), vehicle: saline with Tween-80
[6] = dose: 200.0 mg/kg/injection, schedule: Q01DX001 (ip), vehicle: carboxymethylcellulose (CMC)
[7] = dose: 100.0 mg/kg/injection, schedule: Q04DX003 (ip), vehicle: Klucel (hydroxypropylcellulose) (HPC)
[8] = dose: 200.0 mg/kg/injection, schedule: Q04DX003 (ip), vehicle: Klucel (hydroxypropylcellulose) (HPC)
[9] = dose: 400.0 mg/kg/injection, schedule: Q04DX003 (ip), vehicle: Klucel (hydroxypropylcellulose) (HPC)
[10] = dose: 50.0 mg/kg/injection, schedule: Q01DX001 (ip), vehicle: saline
[11] = dose: 100.0 mg/kg/injection, schedule: Q01DX001 (ip), vehicle: saline
[12] = dose: 200.0 mg/kg/injection, schedule: Q01DX001 (ip), vehicle: saline
[13] = dose: 400.0 mg/kg/injection, schedule: Q01DX001 (ip), vehicle: saline
[14] = dose: 200.0 mg/kg/injection, schedule: Q04DX003 (ip), vehicle: saline with Tween-80

In the case of CC(=O)Nc1ccc2c(c1)C[N+](C)(C1CCCCC1)CO2 (configuration not stated), the T/C (dose: 25.0 mg/kg/injection, schedule: Q01DX009 (ip), vehicle: saline with Tween-80) is reported as 101 % of control, the T/C (dose: 25.0 mg/kg/injection, schedule: Q01DX015 (ip), vehicle: carboxymethylcellulose (CMC)) is reported as 103 % of control and the T/C [1] is reported as 95 % of control. The T/C (dose: 50.0 mg/kg/injection, schedule: Q01DX015 (ip), vehicle: carboxymethylcellulose (CMC)) was 98 % of control, the T/C [2] was 97 % of control and the T/C [3] was 92 % of control. The T/C [4] was 95 % of control, the T/C [5] was 100 % of control and the T/C [6] was 94 % of control.
In the case of NC(=S)N/N=C/c1ccc(F)cc1, the T/C (dose: 60.0 mg/kg/injection, schedule: Q01DX Z (oral), vehicle: methylcellulose (MC)) is reported as 90 % of control and the T/C (dose: 120.0 mg/kg/injection, schedule: Q01DX Z (oral), vehicle: methylcellulose (MC)) is reported as 87 % of control.
In the case of COC(=O)CCNCCSC(=O)c1ccccc1, the T/C (dose: 100.0 mg/kg/injection, schedule: Q04DX003 (ip), vehicle: acetone) is reported as 103 % of control, the T/C (dose: 200.0 mg/kg/injection, schedule: Q04DX003 (ip), vehicle: acetone) is reported as 105 % of control and the T/C (dose: 400.0 mg/kg/injection, schedule: Q04DX003 (ip), vehicle: acetone) is reported as 102 % of control.
COc1ccccc1C(=O)C(O)c1ccccc1OC (configuration not stated) was tested, and the T/C (dose: 50.0 mg/kg/injection, schedule: Q01DX009 (ip), vehicle: Klucel (hydroxypropylcellulose) (HPC)) was 105 % of control, the T/C (dose: 100.0 mg/kg/injection, schedule: Q01DX009 (ip), vehicle: Klucel (hydroxypropylcellulose) (HPC)) was 101 % of control and the T/C [7] was 94 % of control. For the same compound, the T/C (dose: 200.0 mg/kg/injection, schedule: Q01DX009 (ip), vehicle: Klucel (hydroxypropylcellulose) (HPC)) was 96 % of control, the T/C [8] was 96 % of control and the T/C (dose: 400.0 mg/kg/injection, schedule: Q01DX009 (ip), vehicle: Klucel (hydroxypropylcellulose) (HPC)) was 101 % of control. The T/C [9] was 93 % of control.
With CCN(CC)Cc1c(C)[nH]c2c(OC)cccc2c1=O the T/C (dose: 25.0 mg/kg/injection, schedule: Q04DX003 (ip), vehicle: water) was 103 % of control, the T/C (dose: 50.0 mg/kg/injection, schedule: Q04DX003 (ip), vehicle: water) was 97 % of control and the T/C (dose: 100.0 mg/kg/injection, schedule: Q01DX009 (ip), vehicle: water) was 101 % of control. The T/C (dose: 100.0 mg/kg/injection, schedule: Q04DX003 (ip), vehicle: water) was 100 % of control and 102 % of control.
With Cc1ccc(NC2=CC(=O)c3ccccc3C2=O)cc1 the T/C (dose: 75.0 mg/kg/injection, schedule: Q01DX001 (ip), vehicle: carboxymethylcellulose (CMC)) was 93 % of control and the T/C (dose: 150.0 mg/kg/injection, schedule: Q01DX001 (ip), vehicle: carboxymethylcellulose (CMC)) was 95 % of control.
With NC(=S)N/N=C/c1ccc2ccccc2c1 the T/C [10] was 107 % of control, the T/C [11] was 107 % of control and the T/C [12] was 107 % of control. The T/C [13] was 116 % of control.
CC(=O)NC1CCCCC1c1ccc(C2CCCCC2NC(C)=O)cc1 (configuration not stated) was tested, and the T/C [11] was 98 % of control and the T/C [12] was 98 % of control.
In the case of Cc1ccc(C2Nc3ccccc3S(=O)(=O)C2c2ccccc2)cc1 (configuration not stated), the T/C (dose: 100.0 mg/kg/injection, schedule: Q01DX001 (ip), vehicle: Klucel (hydroxypropylcellulose) (HPC)) is reported as 95 % of control, the T/C (dose: 200.0 mg/kg/injection, schedule: Q01DX001 (ip), vehicle: Klucel (hydroxypropylcellulose) (HPC)) is reported as 106 % of control and the T/C (dose: 400.0 mg/kg/injection, schedule: Q01DX001 (ip), vehicle: Klucel (hydroxypropylcellulose) (HPC)) is reported as 101 % of control.
With CCCC(C(O)c1ccc(OC)cc1)C(O)(C(F)(F)F)C(F)(F)F (configuration not stated) the T/C (dose: 100.0 mg/kg/injection, schedule: Q04DX003 (ip), vehicle: other) was 97 % of control, the T/C (dose: 200.0 mg/kg/injection, schedule: Q04DX003 (ip), vehicle: other) was 92 % of control and the T/C (dose: 400.0 mg/kg/injection, schedule: Q04DX003 (ip), vehicle: other) was 92 % of control.
For O=[N+]([O-])c1ccc(C2OC3CC4C5CCCC5C3C4O2)cc1 (configuration not stated), the T/C (dose: 50.0 mg/kg/injection, schedule: Q01DX001 (ip), vehicle: carboxymethylcellulose (CMC)) was 87 % of control, the T/C [3] was 87 % of control and the T/C [6] was 91 % of control. The T/C (dose: 400.0 mg/kg/injection, schedule: Q01DX001 (ip), vehicle: carboxymethylcellulose (CMC)) was 91 % of control.
CN(C)c1ccc(/C=N/NC(=O)C(O)(c2ccccc2)c2ccccc2)cc1 was tested, and the T/C [4] was 98 % of control, the T/C (dose: 200.0 mg/kg/injection, schedule: Q01DX009 (ip), vehicle: saline with Tween-80) was 98 % of control and the T/C (dose: 400.0 mg/kg/injection, schedule: Q01DX009 (ip), vehicle: saline with Tween-80) was 88 % of control.
In the case of CC(=Nc1c2c(nc3ccccc13)CCCC2)N(C)C, the T/C (dose: 12.0 mg/kg/injection, schedule: Q04DX003 (ip), vehicle: Klucel (hydroxypropylcellulose) (HPC)) is reported as 105 % of control, the T/C (dose: 25.0 mg/kg/injection, schedule: Q04DX003 (ip), vehicle: Klucel (hydroxypropylcellulose) (HPC)) is reported as 100 % of control and the T/C (dose: 50.0 mg/kg/injection, schedule: Q04DX003 (ip), vehicle: Klucel (hydroxypropylcellulose) (HPC)) is reported as 104 % of control.
For O=C(O)C1CCCN1 (configuration not stated), the T/C [11] was 100 % of control, the T/C [12] was 87 % of control and the T/C [13] was 97 % of control.
For CN(C)CCCN1CCC2(CCCC(C(F)(F)F)C2)CC1 (configuration not stated), the T/C [10] was 104 % of control, the T/C [11] was 101 % of control and the T/C [12] was 104 % of control.
For CC(Oc1ccccc1)C(=O)NC(=S)Nc1ccc(Cl)cc1 (configuration not stated), the T/C (dose: 50.0 mg/kg/injection, schedule: Q01DX001 (ip), vehicle: saline with Tween-80) was 97 % of control, the T/C [1] was 97 % of control and 98 % of control and 92 % of control and the T/C [2] was 98 % of control. For the same compound, the T/C (dose: 100.0 mg/kg/injection, schedule: Q01DX001 (ip), vehicle: saline with Tween-80) was 97 % of control, the T/C [4] was 97 % of control and 98 % of control and 101 % of control and the T/C [5] was 97 % of control. The T/C (dose: 200.0 mg/kg/injection, schedule: Q01DX001 (ip), vehicle: saline with Tween-80) was 92 % of control and the T/C [14] was 109 % of control.
With Cc1cc(=O)[nH]c2c1CCCC2 the T/C [5] was 92 % of control, the T/C [14] was 97 % of control and the T/C (dose: 400.0 mg/kg/injection, schedule: Q04DX003 (ip), vehicle: saline with Tween-80) was 101 % of control.
For CCCCSP(=S)(OCC)OCC, the T/C [5] was 101 % of control and the T/C [14] was 88 % of control.
In the case of CC12CCCCCCC1O2 (configuration not stated), the T/C (dose: 75.0 mg/kg/injection, schedule: Q01DX001 (ip), vehicle: other) is reported as 100 % of control, the T/C (dose: 150.0 mg/kg/injection, schedule: Q01DX001 (ip), vehicle: other) is reported as 89 % of control and the T/C (dose: 300.0 mg/kg/injection, schedule: Q01DX001 (ip), vehicle: other) is reported as 95 % of control.
For c1ccc2c3c(ccc2c1)-c1oncc1CC3, the T/C [11] was 95 % of control, the T/C [12] was 103 % of control and the T/C [13] was 93 % of control.
In the case of c1ccc2c3c(ccc2c1)CCC/C3=N\N=C1/CCCc2ccc3ccccc3c21, the T/C [7] is reported as 90 % of control, the T/C [8] is reported as 98 % of control and the T/C [9] is reported as 92 % of control.
For O=C(O)c1cc[c]([Hg][S]c2ncnc3nc[nH]c23)cc1, the T/C (dose: 6.0 mg/kg/injection, schedule: Q01DX Z (ip), vehicle: carboxymethylcellulose (CMC)) was 105 % of control, the T/C (dose: 6.25 mg/kg/injection, schedule: Q01DX015 (ip), vehicle: saline) was 110 % of control and the T/C (dose: 12.0 mg/kg/injection, schedule: Q01DX Z (ip), vehicle: carboxymethylcellulose (CMC)) was 116 % of control. The T/C (dose: 16.5 mg/kg/injection, schedule: Q01DX009 (ip), vehicle: saline) was 118 % of control, the T/C (dose: 25.0 mg/kg/injection, schedule: Q01DX015 (ip), vehicle: saline) was 164 % of control and the T/C (dose: 50.0 mg/kg/injection, schedule: Q01DX Z (ip), vehicle: carboxymethylcellulose (CMC)) was 103 % of control. The T/C (dose: 100.0 mg/kg/injection, schedule: Q01DX Z (ip), vehicle: carboxymethylcellulose (CMC)) was 114 % of control.
Cc1cc([N+](=O)[O-])ccc1S(N)(=O)=O was tested, and the T/C [7] was 105 % of control, the T/C [8] was 105 % of control and the T/C [9] was 109 % of control.
